Here are results for 22 molecules from patent US10435399B2, “HDAC6 inhibitory heterocyclic compound” (TAKEDA PHARMACEUTICAL COMPANY LIMITED, priority 2017, dated 2019).

The assay deals with T1, HDAC6 enzyme (Homo sapiens, UniProt Q9UBN7).
T1 construct: transducing full length HDAC6 gene into Sf-9 insect cells; GST; purchased SignalChem; host or cells: Sf-9 insect cells
T1 sequence (Q9UBN7 1-1215): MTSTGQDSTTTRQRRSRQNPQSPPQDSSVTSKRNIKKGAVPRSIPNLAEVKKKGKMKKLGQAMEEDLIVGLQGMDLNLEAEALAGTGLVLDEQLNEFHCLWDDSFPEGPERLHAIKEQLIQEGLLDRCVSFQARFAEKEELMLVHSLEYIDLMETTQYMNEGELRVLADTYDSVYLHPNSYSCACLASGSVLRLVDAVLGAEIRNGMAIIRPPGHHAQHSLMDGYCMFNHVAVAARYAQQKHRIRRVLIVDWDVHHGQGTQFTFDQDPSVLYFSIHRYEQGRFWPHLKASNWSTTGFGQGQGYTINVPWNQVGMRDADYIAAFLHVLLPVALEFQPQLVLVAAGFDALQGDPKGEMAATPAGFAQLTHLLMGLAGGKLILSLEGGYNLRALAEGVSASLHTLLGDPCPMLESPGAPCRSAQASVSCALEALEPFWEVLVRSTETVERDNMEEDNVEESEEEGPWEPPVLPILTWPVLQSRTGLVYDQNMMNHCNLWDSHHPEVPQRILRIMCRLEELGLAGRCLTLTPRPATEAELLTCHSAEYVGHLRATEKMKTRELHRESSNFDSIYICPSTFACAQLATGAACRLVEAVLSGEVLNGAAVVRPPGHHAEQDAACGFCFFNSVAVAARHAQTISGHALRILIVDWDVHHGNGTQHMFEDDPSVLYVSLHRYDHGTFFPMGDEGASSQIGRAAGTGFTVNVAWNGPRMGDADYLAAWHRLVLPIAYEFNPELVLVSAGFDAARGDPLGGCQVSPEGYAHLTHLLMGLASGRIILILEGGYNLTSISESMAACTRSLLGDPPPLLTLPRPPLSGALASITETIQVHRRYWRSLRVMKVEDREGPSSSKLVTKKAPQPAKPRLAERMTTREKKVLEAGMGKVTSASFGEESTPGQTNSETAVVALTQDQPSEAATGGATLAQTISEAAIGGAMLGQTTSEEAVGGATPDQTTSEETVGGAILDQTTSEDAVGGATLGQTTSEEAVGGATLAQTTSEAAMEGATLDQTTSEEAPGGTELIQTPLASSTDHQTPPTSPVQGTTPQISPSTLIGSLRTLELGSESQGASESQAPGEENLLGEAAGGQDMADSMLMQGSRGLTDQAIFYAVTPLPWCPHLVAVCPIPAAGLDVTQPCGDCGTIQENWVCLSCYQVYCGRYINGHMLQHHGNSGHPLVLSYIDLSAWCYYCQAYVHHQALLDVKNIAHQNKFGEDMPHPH
The assay can be described thus: HDAC6 enzyme inhibitory activity (HDAC-Glo I/II Assay kit). It is filed as biochemical. The settings on record: 10 μM; wells without enzyme = 100% inhibition; read-out: HDAC6 inhibitory rate (%) (10 μM). The essentials: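 Sf-9-derived GST-purified full-length HDAC6 + cpd, 60 min RT, 24 mM Tris pH 7.5/0.6 mM glutathione/0.01% Tween-20; add HDAC-Glo substrate-developer, 20 min RT; luminescence. No-enzyme = 100% inhibition.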

Consider `O=C1c2cc(-c3nnc(C(F)F)o3)cnc2CN1[C@@H]1CCNC[C@@H]1c1ccccc1` [Example 193, 3-(5-(difluoromethyl)-1,3,4-oxadiazol-2-yl)-6-((3S,4R)-3-phenylpiperidin-4-yl)-6,7-dihydro-5H-pyrrolo[3,4-b]pyridin-5-one], for which the inhibition at 10 µM is 102%. Consider `COC(=O)N1CC[C@@H](N2Cc3ncc(-c4nnc(C(F)F)o4)cc3C2=O)[C@@H](c2ccccc2)C1` [Example 194, methyl (3S,4R)-4-(3-(5-(difluoromethyl)-1,3,4-oxadiazol-2-yl)-5-oxo-5,7-dihydro-6H-pyrrolo[3,4-b]pyridin-6-yl)-3-phenylpiperidine-carboxylate], for which the inhibition at 10 µM stood at 100%. For `CCC(F)(F)C(=O)N[C@@H]1CCCC[C@H]1N1Cc2ncc(-c3nnc(C(F)F)o3)cc2C1=O` [Example 195, N-((1R,2R)-2-(3-(5-(difluoromethyl)-1,3,4-oxadiazol-2-yl)-5-oxo-5,7-dihydro-6H-pyrrolo[3,4-b]pyridin-6-yl)cyclohexyl)-2,2-difluorobutanamide] the value was 100%; for `O=C1c2cc(-c3nnc(C(F)F)o3)cnc2CN1[C@@H]1CCCC[C@H]1NC(=O)C(F)(F)C(F)(F)F` [Example 196, N-((1R,2R)-2-(3-(5-(difluoromethyl)-1,3,4-oxadiazol-2-yl)-5-oxo-5,7-dihydro-6H-pyrrolo[3,4-b]pyridin-6-yl)cyclohexyl)-2,2,3,3,3-pentafluoropropanamide], 100%; for `O=C1c2cc(-c3nnc(C(F)F)o3)cc(F)c2CN1C[C@H]1COCCN1S(=O)(=O)C1CC1` [Example 197, 2-(((3S)-4-(cyclopropylsulfonyl)morpholin-3-yl)methyl)-6-(5-(difluoromethyl)-1,3,4-oxadiazol-2-yl)-4-fluoroisoindolin-1-one], 100%. Under `Cc1ccc(S(=O)(=O)N2CCOC[C@@H]2CN2Cc3c(F)cc(-c4nnc(C(F)F)o4)cc3C2=O)cc1` [Example 198, 6-(5-(difluoromethyl)-1,3,4-oxadiazol-2-yl)-4-fluoro-2-(((3S)-4-((4-methylphenyl)sulfonyl)morpholin-3-yl)methyl)isoindolin-1-one] stands 99%; under `O=C1c2cc(-c3nnc(C(F)F)o3)cc(F)c2CN1C[C@H]1COCCN1S(=O)(=O)CC(F)(F)F` [Example 199, 6-(5-(difluoromethyl)-1,3,4-oxadiazol-2-yl)-4-fluoro-2-(((3S)-4-((2,2,2-trifluoroethyl)sulfonyl)morpholin-3-yl)methyl)isoindolin-1-one], 100%; under `O=C1c2cc(-c3nnc(C(F)F)o3)cc(F)c2CN1[C@@H]1CCOC[C@H]1NC(=O)C(F)(F)C(F)(F)F` [Example 200, N-((3S,4R)-4-(6-(5-(difluoromethyl)-1,3,4-oxadiazol-2-yl)-4-fluoro-1-oxo-1,3-dihydro-2H-isoindol-2-yl)tetrahydro-2H-pyran-3-yl)-2,2,3,3,3-pentafluoropropanamide], 100%. Turning to `O=C1c2cc(-c3nnc(C(F)F)o3)cc(F)c2CN1[C@@H]1CCOC[C@H]1NC(=O)C1(C(F)(F)F)CC1` [Example 201, N-((3S,4R)-4-(6-(5-(difluoromethyl)-1,3,4-oxadiazol-2-yl)-4-fluoro-1-oxo-1,3-dihydro-2H-isoindol-2-yl)tetrahydro-2H-pyran-3-yl)-1-(trifluoromethyl)cyclopropanecarboxamide], the inhibition at 10 µM amounted to 101%. For the molecule `CC(C)(C(=O)N[C@@H]1COCC[C@H]1N1Cc2c(F)cc(-c3nnc(C(F)F)o3)cc2C1=O)C(F)(F)F` [Example 202, N-((3S,4R)-4-(6-(5-(difluoromethyl)-1,3,4-oxadiazol-2-yl)-4-fluoro-1-oxo-1,3-dihydro-2H-isoindol-2-yl)tetrahydro-2H-pyran-3-yl)-3,3,3-trifluoro-2,2-dimethylpropanamide], the inhibition at 10 µM worked out at 101%. Under `CCC(F)(F)C(=O)N[C@@H]1COCC[C@H]1N1Cc2c(F)cc(-c3nnc(C(F)F)o3)cc2C1=O` [Example 203, N-((3S,4R)-4-(6-(5-(difluoromethyl)-1,3,4-oxadiazol-2-yl)-4-fluoro-1-oxo-1,3-dihydro-2H-isoindol-2-yl)tetrahydro-2H-pyran-3-yl)-2,2-difluorobutanamide] stands 100%; under `CCC(F)(F)C(=O)N[C@@H]1CCOC[C@H]1N1Cc2c(F)cc(-c3nnc(C(F)F)o3)cc2C1=O` [Example 204], 100%; under `O=C1c2cc(-c3nnc(C(F)F)o3)cc(F)c2CN1[C@@H]1COCC[C@H]1NC(=O)C1(C(F)(F)F)CCC1` [Example 205, N-((3S,4R)-3-(6-(5-(difluoromethyl)-1,3,4-oxadiazol-2-yl)-4-fluoro-1-oxo-1,3-dihydro-2H-isoindol-2-yl)tetrahydro-2H-pyran-4-yl)-1-(trifluoromethyl)cyclobutanecarboxamide], 101%. For `Cn1ccc(-c2ccccc2N2Cc3ccc(-c4nnc(C(F)F)o4)cc3C2=O)n1` [Example 206, 6-(5-(difluoromethyl)-1,3,4-oxadiazol-2-yl)-2-(2-(1-methyl-1H-pyrazol-3-yl)phenyl)isoindolin-1-one], the inhibition at 10 µM was 100%.

`Cn1cc(-c2ccccc2N2Cc3ccc(-c4nnc(C(F)F)o4)cc3C2=O)cn1` [Example 207, 6-(5-(difluoromethyl)-1,3,4-oxadiazol-2-yl)-2-(2-(1-methyl-1H-pyrazol-4-yl)phenyl)isoindolin-1-one]: the inhibition at 10 µM turned out to be 100%.

As for `O=C1c2cc(-c3nnc(C(F)F)o3)ccc2CN1c1ccccc1-c1cccnc1` [Example 208, 6-(5-(difluoromethyl)-1,3,4-oxadiazol-2-yl)-2-(2-(pyridin-3-yl)phenyl)isoindolin-1-one], the inhibition at 10 µM turned out to be 100%. `O=C1c2cc(-c3nnc(C(F)F)o3)ccc2CN1CCOc1ccccc1` [Example 209, 6-(5-(difluoromethyl)-1,3,4-oxadiazol-2-yl)-2-(2-phenoxyethyl)isoindolin-1-one]: the inhibition at 10 µM stood at 107%. Under `CCC(F)(F)C(=O)N[C@@H]1CCCC[C@H]1N1Cc2c(F)cc(-c3nnc(C(F)F)o3)cc2C1=O` [Example 210, N-((1R,2R)-2-(6-(5-(difluoromethyl)-1,3,4-oxadiazol-2-yl)-4-fluoro-1-oxo-1,3-dihydro-2H-isoindol-2-yl)cyclohexyl)-2,2-difluorobutanamide] stands 101%; under `CC1(C(=O)N[C@@H]2CCCC[C@H]2N2Cc3c(F)cc(-c4nnc(C(F)F)o4)cc3C2=O)COC1` [Example 211, N-((1R,2R)-2-(6-(5-(difluoromethyl)-1,3,4-oxadiazol-2-yl)-4-fluoro-1-oxo-1,3-dihydro-2H-isoindol-2-yl)cyclohexyl)-3-methyloxetane-3-carboxamide], 100%.

For `O=C1c2cc(-c3nnc(C(F)F)o3)cc(F)c2CN1[C@@H]1CCOC[C@H]1NC(=O)C1(C(F)(F)F)CCC1` [Example 212, N-((3S,4R)-4-(6-(5-(difluoromethyl)-1,3,4-oxadiazol-2-yl)-4-fluoro-1-oxo-1,3-dihydro-2H-isoindol-2-yl)tetrahydro-2H-pyran-3-yl)-1-(trifluoromethyl)cyclobutanecarboxamide], the inhibition at 10 µM was 101%. Consider `CC(C)(OC(=O)N[C@@H]1COCC[C@H]1N1Cc2c(F)cc(-c3nnc(C(F)F)o3)cc2C1=O)C(F)(F)F` [Example 213, 1,1,1-trifluoro-2-methylpropan-2-yl ((3S,4R)-4-(6-(5-(difluoromethyl)-1,3,4-oxadiazol-2-yl)-4-fluoro-1-oxo-1,3-dihydro-2H-isoindol-2-yl)tetrahydro-2H-pyran-3-yl)carbamate], for which the inhibition at 10 µM stood at 100%. Under `CC(C)(F)C(=O)N[C@@H]1CCCC[C@H]1N1Cc2ncc(-c3nnc(C(F)F)o3)cc2C1=O` [Example 214, N-((1R,2R)-2-(3-(5-(difluoromethyl)-1,3,4-oxadiazol-2-yl)-5-oxo-5,7-dihydro-6H-pyrrolo[3,4-b]pyridin-6-yl)cyclohexyl)-2-fluoro-2-methylpropanamide] stands 100%.
